Measurements reported in US12662469B2 (SIRONAX LTD, priority 2018, dated 2026).
pEC50: −log10 of the molar value.

tested on: Cell Necrosis; assay: Cell necrosis assay / cell viability assay (necrosis inhibitor activity); type: cell-based; conditions: not given

| Structure (SMILES) | activity based on the cell activity assay |
| --- | --- |
| O=C1COc2cc(F)c(OC3CN(C(=O)N4N=CC[C@H]4c4ccccc4)C3)cc2N1 [Compound 192, (S)-7-fluoro-6-((1-(5-phenyl-4,5-dihydro-1H-pyrazole-1-carbonyl)azetidin-3-yl)oxy)-2H-benzo[b][1,4]oxazin-3(4H)-one] | potent activity |

same assay, conditions: necrosis inhibitor activity; EC data for 14-191 extrapolated; read-out: EC50

| Structure (SMILES) | pEC50 |
| --- | --- |
| N#Cc1csc(OC2CN(C(=O)N3N=CCC3c3cc(F)cc(F)c3)C2)n1 (centres unmarked) [Compound 131, 2-((1-(5-(3,5-difluorophenyl)-4,5-dihydro-1H-pyrazole-1-carbonyl)azetidin-3-yl)oxy)thiazole-4-carbonitrile] | 6.00 to 9.00 |
| O=C(N1CC(=Cc2c(F)cccc2F)C1)N1N=CCC1c1cc(F)cc(F)c1 (centres unmarked) [Compound 133, (3-(2,6-difluorobenzylidene)azetidin-1-yl)(5-(3,5-difluorophenyl)-4,5-dihydro-1H-pyrazol-1-yl)methanone] | 6.00 to 9.00 |
| O=C(N1CC(C(F)c2ccc(F)cc2F)C1)N1N=CCC1c1cc(F)cc(F)c1 (centres unmarked) [Compound 134, (5-(3,5-difluorophenyl)-4,5-dihydro-1H-pyrazol-1-yl)(3-((2,4-difluorophenyl)fluoromethyl)azetidin-1-yl)methanone] | 6.00 to 9.00 |
| O=C(N1CC(C(F)(F)c2ccc(F)cc2F)C1)N1N=CCC1c1cc(F)cc(F)c1 (centres unmarked) [Compound 135, (5-(3,5-difluorophenyl)-4,5-dihydro-1H-pyrazol-1-yl)(3-((2,4-difluorophenyl)difluoromethyl)azetidin-1-yl)methanone] | 6.00 to 9.00 |
| N#Cc1ccc(OC2CN(C(=O)N3N=CCC3c3cc(F)cc(F)c3)C2)c(F)c1 (centres unmarked) [Compound 136, 4-((1-(5-(3,5-difluorophenyl)-4,5-dihydro-1H-pyrazole-1-carbonyl)azetidin-3-yl)oxy)-3-fluorobenzonitrile] | 6.00 to 9.00 |
| N#Cc1ccc(OC2CN(C(=O)N3N=CCC3c3cc(F)cc(F)c3)C2)cc1F (centres unmarked) [Compound 137, 4-((1-(5-(3,5-difluorophenyl)-4,5-dihydro-1H-pyrazole-1-carbonyl)azetidin-3-yl)oxy)-2-fluorobenzonitrile] | 6.00 to 9.00 |
| O=C(N1CC(=Cc2ccc(Cl)cc2F)C1)N1N=CCC1c1cc(F)cc(F)c1 (centres unmarked) [Compound 138] | 6.00 to 9.00 |
| O=C(N1CC(=Cc2ccc(F)cc2Cl)C1)N1N=CCC1c1cc(F)cc(F)c1 (centres unmarked) [Compound 139, (3-(2-chloro-4-fluorobenzylidene)azetidin-1-yl)(5-(3,5-difluorophenyl)-4,5-dihydro-1H-pyrazol-1-yl)methanone] | 6.00 to 9.00 |
| O=C(N1CC(=Cc2ccc(F)c(F)c2)C1)N1N=CCC1c1cc(F)cc(F)c1 (centres unmarked) [Compound 140, (3-(3,4-difluorobenzylidene)azetidin-1-yl)(5-(3,5-difluorophenyl)-4,5-dihydro-1H-pyrazol-1-yl)methanone] | 6.00 to 9.00 |
| O=C(N1CC(Oc2ccc(F)nc2)C1)N1N=CCC1c1cc(F)cc(F)c1 (centres unmarked) [Compound 141, (5-(3,5-difluorophenyl)-4,5-dihydro-1H-pyrazol-1-yl)(3-((6-fluoropyridin-3-yl)oxy)azetidin-1-yl)methanone] | 6.00 to 9.00 |
| O=C(N1CC(Oc2ccc(F)cc2F)C1)N1N=CC[C@H]1c1cc(F)cc(F)c1 [Compound 142] | 6.00 to 9.00 |
| O=C(N1CC(Oc2ccc(F)cc2)C1)N1N=CC[C@H]1c1cc(F)cc(F)c1 [Compound 143] | 6.00 to 9.00 |
| O=C(N1CC(Oc2ccccc2F)C1)N1N=CC[C@H]1c1cc(F)cc(F)c1 [Compound 144] | 6.00 to 9.00 |
| O=C(N1CC(Oc2ccc(F)nc2F)C1)N1N=CC[C@H]1c1cc(F)cc(F)c1 [Compound 145] | 6.00 to 9.00 |
| NC(=O)c1ccc(OC2CN(C(=O)N3N=CCC3c3cc(F)cc(F)c3)C2)cc1F (centres unmarked) [Compound 155] | 6.00 to 9.00 |
| NC(=O)c1c(F)cc(OC2CN(C(=O)N3N=CCC3c3cc(F)cc(F)c3)C2)cc1F (centres unmarked) [Compound 156] | 6.00 to 9.00 |
| NC(=O)c1c(F)cc(OC2CN(C(=O)N3N=CCC3c3cc(F)cc(F)c3)C2)cc1Cl (centres unmarked) [Compound 157] | 6.00 to 9.00 |
| NC(=O)c1cc(OC2CN(C(=O)N3N=CCC3c3cc(F)cc(F)c3)C2)ccc1Cl (centres unmarked) [Compound 158] | 6.00 to 9.00 |
| NC(=O)c1cc(OC2CN(C(=O)N3N=CCC3c3cc(F)cc(F)c3)C2)ccc1F (centres unmarked) [Compound 159] | 6.00 to 9.00 |
| CNC(=O)c1c(F)cc(OC2CN(C(=O)N3N=CCC3c3cc(F)cc(F)c3)C2)cc1F (centres unmarked) [Compound 160] | 6.00 to 9.00 |
| CNC(=O)c1cc(OC2CN(C(=O)N3N=CCC3c3cc(F)cc(F)c3)C2)ccc1Cl (centres unmarked) [Compound 161] | 6.00 to 9.00 |
| CNC(=O)c1cc(OC2CN(C(=O)N3N=CCC3c3cc(F)cc(F)c3)C2)ccc1F (centres unmarked) [Compound 162] | 6.00 to 9.00 |
| CNC(=O)c1cccc(OC2CN(C(=O)N3N=CCC3c3cc(F)cc(F)c3)C2)c1 (centres unmarked) [Compound 163] | 6.00 to 9.00 |
| CNC(=O)c1cccc(OC2CN(C(=O)N3N=CCC3c3cc(F)cc(F)c3)C2)c1Cl (centres unmarked) [Compound 164] | 6.00 to 9.00 |
| CNC(=O)c1ccc(OC2CN(C(=O)N3N=CCC3c3cc(F)cc(F)c3)C2)cc1 (centres unmarked) [Compound 165] | 6.00 to 9.00 |

| Structure (SMILES) | pEC50 |
| --- | --- |
| O=C(N1CC(Oc2ccc(-c3ncc[nH]3)cc2)C1)N1N=CCC1c1cc(F)cc(F)c1 (centres unmarked) [Compound 166] | 6.00 to 9.00 |
| O=C1NCc2cc(OC3CN(C(=O)N4N=CCC4c4cc(F)cc(F)c4)C3)ccc21 (centres unmarked) [Compound 167] | 6.00 to 9.00 |
| O=C1NCc2c1csc2OC1CN(C(=O)N2N=CCC2c2cc(F)cc(F)c2)C1 (centres unmarked) [Compound 168] | 6.00 to 9.00 |
| O=C(N1CC(Oc2scc3c(=O)[nH]cnc23)C1)N1N=CCC1c1cc(F)cc(F)c1 (centres unmarked) [Compound 169] | 6.00 to 9.00 |
| CNC(=O)c1nc(OC2CN(C(=O)N3N=CCC3c3cc(F)cc(F)c3)C2)sc1F (centres unmarked) [Compound 170] | 6.00 to 9.00 |
| CNC(=O)c1csc(OC2CN(C(=O)N3N=CCC3c3cc(F)cc(F)c3)C2)n1 (centres unmarked) [Compound 171] | 6.00 to 9.00 |
| CNC(=O)c1nc(OC2CN(C(=O)N3N=CCC3c3cc(F)cc(F)c3)C2)oc1F (centres unmarked) [Compound 172] | 6.00 to 9.00 |
| CNC(=O)c1coc(OC2CN(C(=O)N3N=CCC3c3cc(F)cc(F)c3)C2)n1 (centres unmarked) [Compound 173] | 6.00 to 9.00 |
| O=C(N1CC(Oc2nc3c(=O)[nH]ccc3s2)C1)N1N=CCC1c1cc(F)cc(F)c1 (centres unmarked) [Compound 174] | 6.00 to 9.00 |
| Cc1csc(OC2CN(C(=O)N3N=CCC3c3cc(F)cc(F)c3)C2)n1 (centres unmarked) [Compound 175] | 6.00 to 9.00 |
| Cc1cnc(OC2CN(C(=O)N3N=CCC3c3cc(F)cc(F)c3)C2)s1 (centres unmarked) [Compound 176] | 6.00 to 9.00 |
| O=C(N1CC(Oc2ccc3cc[nH]c3c2)C1)N1N=CCC1c1cc(F)cc(F)c1 (centres unmarked) [Compound 177] | 6.00 to 9.00 |
| O=C(N1CC(Oc2ccc3nc[nH]c3c2)C1)N1N=CCC1c1cc(F)cc(F)c1 (centres unmarked) [Compound 178] | 6.00 to 9.00 |
| O=C(N1CC(Oc2nc3[nH]c(=O)ccc3s2)C1)N1N=CCC1c1cc(F)cc(F)c1 (centres unmarked) [Compound 179] | 6.00 to 9.00 |
| O=C1NCc2cc(OC3CN(C(=O)N4N=CCC4c4cc(F)cc(F)c4)C3)ccc21 (centres unmarked) [Compound 180] | 6.00 to 9.00 |
| O=C(N1CC(Oc2ccc3ccc(=O)[nH]c3c2)C1)N1N=CCC1c1cc(F)cc(F)c1 (centres unmarked) [Compound 181] | 6.00 to 9.00 |
| O=C(N1CC(Oc2ccc3cn[nH]c3c2)C1)N1N=CCC1c1cc(F)cc(F)c1 (centres unmarked) [Compound 182] | 6.00 to 9.00 |
| O=C(N1CC(=Cc2ccc3cc[nH]c3c2)C1)N1N=CCC1c1cc(F)cc(F)c1 (centres unmarked) [Compound 184] | 6.00 to 9.00 |
| O=C(N1CC(Oc2ccc3oc(=O)[nH]c3c2)C1)N1N=CCC1c1cc(F)cc(F)c1 (centres unmarked) [Compound 185] | 6.00 to 9.00 |
| O=C(N1CC(Oc2ccc(=O)[nH]c2)C1)N1N=CCC1c1cc(F)cc(F)c1 (centres unmarked) [Compound 186] | 6.00 to 9.00 |
| O=C(N1CC(=Cc2ccc(=O)[nH]c2)C1)N1N=CCC1c1cc(F)cc(F)c1 (centres unmarked) [Compound 187] | 6.00 to 9.00 |
| Cn1c(OC2CN(C(=O)N3N=CCC3c3cc(F)cc(F)c3)C2)cccc1=O (centres unmarked) [Compound 188] | 6.00 to 9.00 |
| O=C(N1CC(Oc2ccc3ccc(=O)[nH]c3c2)C1)N1N=CCC1c1cc(F)cc(F)c1 (centres unmarked) [Compound 189] | 6.00 to 9.00 |
| O=C(N1CC(=Cc2ccc3ccc(=O)[nH]c3c2)C1)N1N=CCC1c1cc(F)cc(F)c1 (centres unmarked) [Compound 190] | 6.00 to 9.00 |
| O=C(N1CC(Cc2ccc3nc[nH]c3c2)C1)N1N=CCC1c1cc(F)cc(F)c1 (centres unmarked) [Compound 191] | 6.00 to 9.00 |

same assay, conditions: necrosis inhibitor activity; compounds outside 14-191; read-out: EC50

| Structure (SMILES) | pEC50 |
| --- | --- |
| O=C1COc2cc(F)c(OC3CN(C(=O)N4N=CC[C@H]4c4ccccc4)C3)cc2N1 [Compound 192, (S)-7-fluoro-6-((1-(5-phenyl-4,5-dihydro-1H-pyrazole-1-carbonyl)azetidin-3-yl)oxy)-2H-benzo[b][1,4]oxazin-3(4H)-one] | 6.00 to 9.00 |
| O=C1COc2cc(F)c(OC3CN(C(=O)N4N=CC[C@H]4c4cc(F)cc(F)c4)C3)cc2N1 [Compound 193, (S)-6-((1-(5-(3,5-difluorophenyl)-4,5-dihydro-1H-pyrazole-1-carbonyl)azetidin-3-yl)oxy)-7-fluoro-2H-benzo[b][1,4]oxazin-3(4H)-one] | 6.00 to 9.00 |
| O=C1COc2cc(F)c(OC3CN(C(=O)N4N=CC[C@H]4c4cncc(F)c4)C3)cc2N1 [Compound 194, (S)-7-fluoro-6-((1-(5-(5-fluoropyridin-3-yl)-4,5-dihydro-1H-pyrazole-1-carbonyl)azetidin-3-yl)oxy)-2H-benzo[b][1,4]oxazin-3(4H)-one] | 6.00 to 9.00 |
| N#Cc1cccc([C@@H]2CC=NN2C(=O)N2CC(Oc3cc4c(cc3F)OCC(=O)N4)C2)c1 [Compound 195] | 6.00 to 9.00 |
| O=C1COc2cc(F)c(O[C@@H]3CCN(C(=O)N4N=CC[C@H]4c4cc(F)cc(F)c4)C3)cc2N1 [Compound 196] | 6.00 to 9.00 |
| N#Cc1cncc([C@@H]2CC=NN2C(=O)N2CC(Oc3cc4c(cc3F)OCC(=O)N4)C2)c1 [Compound 197, (S)-5-(1(3-((7-fluoro-3-oxo-3,4-dihydro-2H-benzo[b][1,4]oxazin-6-yl)oxy)azetidine-1-carbonyl)-4,5-dihydro-1H-pyrazol-5-yl)nicotinonitrile] | 6.00 to 9.00 |
| N#Cc1cc(F)cc([C@@H]2CC=NN2C(=O)N2CC(Oc3ccc4c(c3)NC(=O)CO4)C2)c1 [Compound 198, (S)-3-fluoro-5-(1-(3-((3-oxo-3,4-dihydro-2H-benzo[b][1,4]oxazin-6-yl)oxy)azetidine-1-carbonyl)-4,5-dihydro-1H-pyrazol-5-yl)benzonitrile] | 6.00 to 9.00 |
| O=C1COc2ccc(OC3CN(C(=O)N4N=CC[C@H]4c4ccccc4)C3)cc2N1 [Compound 199, (S)-6-((1-(5-phenyl-4,5-dihydro-1H-pyrazole-1-carbonyl)azetidin-3-yl)oxy)-2H-benzo[b][1,4]oxazin-3(4H)-one] | 6.00 to 9.00 |
